From patent US20110306541A1, “METHODS FOR TREATING HCV” (priority 2010, published 2011)

Columns and labels:
HCV 1b replicon = test: Renilla luciferase (RLuc)-based HCV replicon reporter assay - HCV 1b RLuc; assay type: cell-based; settings: Hepatitis C virus; Table I; HCV 1b RLuc replicon
[1] = Drug-drug interaction on co-administration; assay type: in vivo
[2] = Exposure (AUC) corresponding to dose; assay type: in vivo, human; settings: for AUC: human, in vivo
[3] = Bilirubin elevations related to dose of Compound 3; assay type: in vivo, human; settings: doses above 400 mg

COC(=O)N[C@H](C(=O)N1CCC[C@H]1c1ncc(-c2ccc3cc(-c4ccc(-c5cnc([C@@H]6CCCN6C(=O)[C@H](NC(=O)OC)c6ccccc6)[nH]5)cc4)ccc3c2)[nH]1)C(C)C
EC50 (HCV 1b replicon): 8.1 pM

COC(=O)N[C@H](C(=O)N1CCC[C@H]1c1ncc(-c2ccc3cc4cc(-c5cnc([C@@H]6CCCN6C(=O)[C@@H](NC(=O)OC)C(C)C)[nH]5)ccc4cc3c2)[nH]1)C(C)C
EC50 (HCV 1b replicon): 7 pM

COC(=O)N[C@H](C(=O)N1CCC[C@H]1c1nc(C#Cc2ccc3cc(-c4cnc([C@@H]5CC(F)(F)CN5C(=O)[C@@H](NC(=O)OC)C(C)C)[nH]4)ccc3c2)c[nH]1)C(C)C
EC50 (HCV 1b replicon): 14.7 pM

COC(=O)N[C@H](C(=O)N1CCC[C@H]1c1ncc(C#CC2=CC3SC(c4cnc([C@@H]5CCCN5C(=O)[C@@H](NC(=O)OC)C(C)C)[nH]4)=CC3S2)[nH]1)C(C)C (stereo partly drawn)
EC50 (HCV 1b replicon): 50.3 pM

COC(=O)N[C@H](C(=O)N1CCC[C@H]1c1ncc(-c2cc3cc4sc(-c5cnc([C@@H]6CCCN6C(=O)[C@@H](NC(=O)OC)C(C)C)[nH]5)cc4cc3s2)[nH]1)C(C)C
EC50 (HCV 1b replicon): 7.7 pM

Fc1ccccc1-c1nc2ccn(Cc3ccc(-c4ccc(C(F)(F)F)cc4C(F)(F)F)nn3)cc-2n1 [Compound 1, 5-((6-(2,4-bis(trifluoromethyl)phenyl)pyridazin-3-yl)methyl)-2-(2-fluorophenyl)-5H-imidazo[4,5-c]pyridine]
increase of the exposure of Compound 1 ([1]; co-administered with Compound 2): 2-3 ×
effect on drug metabolizing systems ([1]; in vivo): it does not appear that Compound 1 affects drug metabolizing systems

CC[C@@H]1C[C@]1(NC(=O)[C@@H]1C[C@@H](Oc2cc(-c3csc(NC(C)C)n3)nc3c(Cl)c(OCCN4CCOCC4)ccc23)CN1C(=O)[C@@H](NC(=O)O[C@@H]1C[C@@H]2C[C@@H]2C1)C(C)(C)C)C(=O)O [Compound 3]
AUC ([2]; 10 mg dose): 272 ng·h/mL
AUC ([2]; 1000 mg dose): 48400 ng·h/mL
bilirubin elevations [3]: more bilirubin elevations in some cases

COC(=O)NC(C(=O)N1CC2(CC2)CC1c1ncc(-c2ccc3c(c2)C(F)(F)c2cc(-c4ccc5nc(C6C7CCC(C7)N6C(=O)C(NC(=O)OC)C(C)C)[nH]c5c4)ccc2-3)[nH]1)C(C)C (stereo not drawn) [Compound 16, (1-{3-[6-(9,9-Difluoro-7-{2-[5-(2-methoxycarbonylamino-3-methyl-butyryl)-5-aza-spiro[2.4]hept-6-yl]-3H-imidazol-4-yl}-9H-fluoren-2-yl)-1H-benzoimidazol-2-yl]-2-aza-bicyclo[2.2.1]heptane-2-carbonyl}-2-methyl-propyl)-carbamic acid methyl ester]
exposure ([2]; 3 mg dose): 32.3 ng·h/mL
exposure ([2]; 30 mg dose): 1415.2 ng·h/mL
exposure ([2]; 90 mg dose): 4137.9 ng·h/mL
exposure ([2]; 100 mg dose): 11166.6 ng·h/mL
exposure ([2]; 300 mg dose): 38900 ng·h/mL
